What was measured:
aconitase = target: T1, aconitase (Saccharomyces cerevisiae, UniProt P19414); experiment: Aconitase activity in lysates of treated Saccharomyces cerevisiae BY4741 cultures (Bioxytech Aconitase-340 kit); type: cell-based; details: for Aconitase Activity, % of Untreated Control: S. cerevisiae BY4741 in YPD, incubated overnight, cell lysate, negative activity reported as 0; for Aconitase inhibition (in words): culturing of cells in the presence of the material, effective = inhibition by 70% or more
T1 construct: endogenous in cells; host or cells: Saccharomyces cerevisiae strain BY4741
Method: Cultures of Saccharomyces cerevisiae strain BY4741 are grown in YPD (20 grams glucose, 20 grams peptone, 10 grams yeast extract per liter) broth overnight at 30°. The cultures are diluted with YPD to a total volume of 100 mls with an optical density (600 nm) of 0.1. The cultures are incubated with shaking until reaching an optical density of 0.2, whereupon the test material is added. The cultures are incubated overnight, and the cells are pelleted by centrifugation. The cell pellet is washed with 100 mM NaCl, 20 mM Tris pH 7.4 and resuspended in 5 ml of 100 mM NaCl, 20 mM Tris pH 7.4. Glass beads (0.5 mm) is added. The sample is alternately vortexed for one minute and incubated on ice for one minute, with a total of ten treatments. After centrifugation, the supernatant is collected. In a 96-well plate (UV-transparent Corning 3679 plate), 30 μl of cell lysate is mixed with 20 μl 100 mM NaCl, 20 mM Tris pH 7.4 and assayed using a Bioxytech Aconitase-340 kit (OxisResearch) according to instructions.
For the aconitase assay, samples are incubated for six minutes at 37°. The reaction rate is calculated based on the increase in optical density (340 nm) in the five-minute interval beginning one minute after the reaction started. The aconitase activity in lysates of treated samples is divided by the aconitase activity in lysates of untreated samples. If replicates were performed on samples, the reported data are a mean of the aconitase activity measurements of individual lysates of treated cells divided by the mean of the aconitase activity measurements of individual lysates of untreated cells. If the aconitase activity appears to be negative in lysates of treated cells, the value “0” is reported for aconitase activity (Table 1).

Saccharomyces = details: minimal medium; by inhibition of glutamate and lysine synthesis

T1 sequence (P19414 17-778): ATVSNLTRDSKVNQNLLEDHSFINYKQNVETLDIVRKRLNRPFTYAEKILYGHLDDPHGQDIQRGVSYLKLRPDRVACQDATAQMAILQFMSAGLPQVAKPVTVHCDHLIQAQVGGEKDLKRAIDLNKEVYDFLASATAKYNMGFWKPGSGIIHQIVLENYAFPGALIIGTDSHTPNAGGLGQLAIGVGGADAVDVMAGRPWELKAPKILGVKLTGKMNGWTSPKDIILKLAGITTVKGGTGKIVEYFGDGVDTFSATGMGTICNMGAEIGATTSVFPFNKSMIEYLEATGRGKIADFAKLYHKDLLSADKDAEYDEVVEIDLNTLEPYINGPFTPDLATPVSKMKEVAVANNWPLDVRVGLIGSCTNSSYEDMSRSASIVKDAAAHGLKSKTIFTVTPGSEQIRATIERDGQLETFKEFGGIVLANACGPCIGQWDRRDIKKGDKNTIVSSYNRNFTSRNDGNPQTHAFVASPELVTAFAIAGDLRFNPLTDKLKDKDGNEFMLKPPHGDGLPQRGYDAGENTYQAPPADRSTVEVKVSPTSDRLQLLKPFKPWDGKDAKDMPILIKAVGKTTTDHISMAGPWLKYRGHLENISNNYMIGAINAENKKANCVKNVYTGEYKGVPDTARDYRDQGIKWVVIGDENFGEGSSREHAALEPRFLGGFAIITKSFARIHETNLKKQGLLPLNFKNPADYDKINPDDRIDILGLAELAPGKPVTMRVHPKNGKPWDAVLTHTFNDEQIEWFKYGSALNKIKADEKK

Row | SMILES | Aconitase Activity, % of Untreated Control (aconitase; 50 ppm test material) [%] | also measured
1 | c1cnc2c(c1)ccc1cccnc12 [1,10-Phenanthroline] | 2 | 
2 | Oc1cccc2cccnc12 [8-Hydroxyquinoline] | 15 | 
3 | On1ccccc1=S.On1ccccc1=S.[Cu] [Copper Pyrithione (CuPT), Copper Pyrithione] |  | Aconitase Activity, % of Untreated Control (aconitase; 5 ppm test material): 0%
4 | O=C(O)CN(CCN(CC(=O)O)CC(=O)O)CC(=O)O [EDTA] | 36 | Aconitase inhibition (in words) (aconitase): not effective
5 | CCCCCCCCOc1cccc(=O)n1O.NCCO [N-Hydroxy-6-octyloxypyridine-2(1H)one, ethanolamine salt] | 0 | 
6 | Cc1cc(CC(C)CC(C)(C)C)n(O)c(=O)c1.NCCO (centres unmarked) [Piroctone Diamine (Octopirox), Piroctone Diamine] | 0 | 
7 | O=S(=O)([O-])[O-].[Zn+2] [Zinc Sulfate] | 110 | 
8 | [O-]n1ccccc1=S.[O-]n1ccccc1=S.[Zn+2] [Zinc pyrithione (ZPT), zinc salt of 1-hydroxy-2-pyridinethione] |  | Aconitase Activity, % of Untreated Control (aconitase; 5 ppm test material): 0%; Aconitase inhibition (in words) (aconitase): aconitase inhibition; Growth inhibition (in words) (Saccharomyces): inhibits growth

Source: patent US20130108610A1 (priority 2011, published 2013)
